# Source: patent US20180030537A1, “PUMA, A PRO-APOPTOTIC GENE, AS A NOVEL MOLECULAR BIOMARKER FOR TNFALPHA-INDUCED HUMAN ISLET DAMAGE” (CITY OF HOPE, priority 2010, published 2018)
# “Also recorded” adds a separate entry of the source.
# B1: IFN-γ: recombinant human IFNγ, R&D Systems; cytokine stimulus (protein, UniProt P01579 24-161, looked up)
# Interferon gamma: QDPYVKEAENLKKYFNAGHSDVADNGTLFLGILKNWKEESDRKIMQSQIVSFYFKLFKNFKDDQSIQKSVETIKEDMNVKFFNSNKKKRDDFEKLTNYSVTDLNVQRKAIHELIQVMAELSPAAKTGKRKRSQMLFRG
# Assays:
# human islets [1] = assay: Drug compound screening in single human islets: TNF-α induced PUMA, IL-8 and TNF mRNA; type: cell-based; conditions: pre-incubation 1 hour, 10 μM (Etanercept 0.1 μg/mL), then 5 ng/mL TNF-α 4 hours, vs control (vehicle alone); for TNF-α induced up regulation of PUMA mRNA (% ACTB): FIG. 4A; for TNF-α induced up regulation of IL-8 mRNA (% ACTB): FIG. 4B; for TNF-α induced up regulation of endogenous TNF mRNA (% ACTB): FIG. 4C
# Method: FIGS. 4A-C. PUMA, IL-8 and TNF-α are used as markers to screen drug compounds protecting islets from TNF-α stimulus. Single human islets in hextuplicate were pre-incubated with various drugs (all used at 10 μM except Etanercept (0.1μ/ml)) or solvent (DMSO) at 37° C. for 1 hour, followed by stimulation with or without 5 ng/ml of TNF-α for an additional 4 hours. FIG. 4A: PUMA and ACTB mRNA were quantified and the results are expressed as % ACTB (*p<0.05 vs. control islets with TNF-α). FIG. 4B: IL-8 was quantified and the results are expressed as % ACTB. FIG. 4C: Endogenous TNF-α was quantified and the results are expressed as % ACTB. Together, the results of FIGS. 4A-C show an example of a compound screening system using PUMA, IL-8 and TNF mRNA.
# Human islets and acinar cells isolated for research use were obtained from the Southern California Islet Cell Resources (SC-ICR) Center, Beckman Research Institute of the City of Hope (Duarte, Calif.) 1 to 3 days after isolation. The donor age ranged from 18 to 67 (48±14) years and included both sexes. Islet preparations with >70% purity and >90% viability were used. The use of human islets and acinar cells in this study was approved by the Institutional Review Board of the City of Hope. For mRNA experiments, islets between 150 μm to 300 μm in diameter (medium size islet) were handpicked in hexuplicate by experienced personnel under a dissection microscope without staining. Each handpicked islet was cultured individually in a non-tissue culture treated 96 well plate (Sarstedt, Newton, N.C.) with a CMRL (Mediatech Inc., Holly Hill, Fla.) based serum-free medium, which is used to culture human islets for clinical transplantation. Islets were treated with or without recombinant human TNF-α (0, 1, 5, 50 ng/mL) and/or recombinant human IFNγ (0, 10, 100, 1000 U/mL) for up to 16 hours. For other islet experiments, 500 to 1000 islet equivalent (IEQ) were cultured (500 IEQ/mL of medium) in a Petri dish for up to 24 hours in the same condition described above unless otherwise specified. For acinar cell experiments, acinar cells were kept in islet culture medium at 4° C. immediately after the isolation and used within 24 hours. Aliquots of 5-10 acinar cell clusters in triplicates were cultured with islet culture medium with or without TNF-α for up to 16 hours. For drug compound screening experiments, islets were pre-incubated with Etanercept, FK506, Cyclosporine (CsA), Rapamycin, Imatinib mesylate, Janus Kinase (JAK) inhibitor or p38 inhibitor, SB203580, for 1 hour, and then 5 ng/mL TNF-α was added to the islet culture for 4 hours. All the compounds except Etanercept (0.1 μg/mL) were dissolved in dimethyl sulfoxide (DMSO) and used at a concentration of 10 μM (all compounds are gifts from Hitachi Chemical Research Center).
# RNA purification and PCR was performed as described previously (32). Briefly, following culture, islets were transferred to a 96-well filter plate (Hitachi Chemical Research Center-HCR, Irvine, Calif.)(44) and 50 μL of Lysis Buffer (HCR) containing a cocktail of specific reverse primers was applied to each well. Poly(A)+mRNA isolation was performed using the Hem(A)+™ System (Hitachi Chemical Research Center, Irvine, Calif.). The resultant cell lysates were transferred to oligo(dT)-immobilized microplates (GenePlate, HCR) for poly(A)^+ mRNA purification (45). The cDNA was directly synthesized with 30 μL of solution in each well: specific primer-primed cDNA in the liquid phase and oligo(dT)-primed cDNA in the solid phase (44). The cDNA in the solution was diluted by adding 30 μL nuclease-free water, with 4 μL of the diluted cDNA used for SYBR Green PCR (BioRad, Hercules, Calif.) (46). Each gene was amplified individually. The cycle threshold (Ct) was determined using analytical software (SDS, Applied Biosystems, Foster City, Calif.). Differences in Ct between the target and control mRNA (ΔCt) are used to quantify the relative amount of each target, calculated as 2^−ΔCt. […]
# islets = conditions: in vitro; cited from earlier work
# NOD mice = conditions: cited from earlier work
# human islets [2] = assay: Western blot of PUMA and phospho-p65 in cultured human islets; type: cell-based
# Method: All data are presented as a mean±standard error.
# In some experiments, islets were pre-incubated with 10 μM NFκB inhibitor; BAY11-7082 for 1 hour before cytokine stimulation. Islet cell lysis and western blot was performed as previously described (49).
# [3] = children with new onset of T1DM; cited from earlier work
# human islets [4] = assay: IL-1β stimulation of single human islets, mRNA by RT-PCR; type: cell-based; conditions: recombinant IL-1β up to 100 U/mL, up to 16 hours, n=1
# Method: FIGS. 16A-D. IL-1β up-regulates PUMA mRNA in human islets. Single islets in sextuplicate were stimulated with or without recombinant IL-1β (0.10 and 100 U/mL) for up to 16 hours. FIG. 16A) PUMA, FIG. 16B) IL-8, FIG. 16C) endogenous IL-1B and FIG. 16D) endogenous TNF mRNA in islets were normalized by β actin (% ACTB) mRNA assessed by RT-PCR (n=1). IL-1β induced PUMA, IL-8, endogenous IL-1 and TNF in human islets.
# In addition to TNF-α, the expression of PUMA was examined following stimulation with […]. […] alone stimulation induced PUMA, IL-8, TNF and IL1B mRNA within 4 hours. […] IL-1β-induced PUMA expression can also be explained through the NFκB pathway.
# human islets [5] = assay: Cytokine stimulation of single human islets, mRNA quantification; type: cell-based; conditions: TNF-α 1, 5, 50 ng/ml and/or IFNγ 10, 100, 1000 U/ml
# Method: Single islets were stimulated with or without 50 ng/ml TNF-α for 16 hours. Each dot indicates the result of one islet lot tested in hextuplicate. The tests were performed using 4 different human islet lots. Bars indicate the mean of 4 lots. Each gene expression was normalized by ACTB (a gene encoding β actin), and the fold increase was calculated by dividing TNF-α treated islets by control islets (*p<0.01, n=4). […] FIGS. 8B-D) PUMA (FIG. 8B), IL-8 (FIG. 8C) and TNF-α (FIG. 8D) expression from single human islets (n=6) stimulated with 0 (open circles), 1 (solid triangles), 5 (solid squares) and 50 ng/ml (solid circles) TNF-α for 0, 1, 4, 16 hours in 3 independent cases. Dose dependent expression of (FIG. 8E) PUMA, (FIG. 8F) IL-8 and (FIG. 8G) TNF-α in human islet at the 4 hour time point (n=3). […] (FIG. 8K) PUMA and (FIG. 8L) IL-8 expression in human islets stimulated with or without TNF-α (1, 5, 50 ng/ml) and/or IFNγ (10, 100, 1000 U/ml) for 4 hours. […] All data are presented as a mean±standard error.
# Human islets and acinar cells isolated for research use were obtained from the Southern California Islet Cell Resources (SC-ICR) Center, Beckman Research Institute of the City of Hope (Duarte, Calif.) 1 to 3 days after isolation. The donor age ranged from 18 to 67 (48±14) years and included both sexes. Islet preparations with >70% purity and >90% viability were used. […]
# human islets [6] = assay: Preproinsulin precursor mRNA synthesis and total insulin release of single human islets; type: cell-based; conditions: 16 hours, high glucose; TNF-α 50 ng/mL; IFNγ 10-1000 U/ml; FIG. 3B, 3C
# Method: FIG. 3B) The glucose induced newly synthesized preproinsulin precursor mRNA measured by pre-spliced preproinsulin mRNA normalized by pre- and post-spliced preproinsulin mRNA (% exon) in the corresponding islets with or without 50 ng/ml. TNF-α was also examined (n=3, *p<0.05). FIG. 3C) Glucose induced preproinsululin precursor mRNA synthesis with or without TNF-α (1, 5 and 50 ng/ml) and/or IFNγ (10, 100 and 1000 U/ml) from a single human islet in hextuplicate. […] All data are presented as a mean±standard error.
# Hand picked human islets were cultured with 100 uL of RPMI 1640 medium containing 5% fetal bovine serum and either low-glucose (3.3 mmol/L) or high-glucose (17 mmol/L) for 16 hours. Preproinsulin mRNA synthesis was measured from the islets by the methods described above. Pre-spliced preproinsulin mRNA (preproinsulin precursor mRNA) was normalized by pre- and post-spliced preproinsulin mRNA as described previously (32).
# The effect of TNF-α and/or IFN-γ on β cell function was examined by analyzing the ability of human islets to synthesize and release insulin. […] The dose dependent effect of TNF-α and/or IFN-γ on preproinsulin precursor mRNA synthesis was also examined.
molecule,measurement,setting,value
Cc1ccc(NC(=O)c2ccc(CN3CCN(C)CC3)cc2)cc1Nc1nccc(-c2cccnc2)n1 [Imatinib],TNF-α induced up regulation of PUMA mRNA (% ACTB),human islets [1],reduced the up regulation
same,TNF-α induced up regulation of IL-8 mRNA (% ACTB),human islets [1],reduced the up regulation
same,TNF-α induced up regulation of endogenous TNF mRNA (% ACTB),human islets [1],reduced the up regulation
same,protection of islets from combined cytokines,islets,protect islets from combined cytokines
same,spontaneous onset of diabetes,NOD mice,prevents the spontaneous onset of diabetes
Cc1ccc(S(=O)(=O)/C=C/C#N)cc1 [BAY11-7082],PUMA expression induced by the combination of TNF-α and IFNγ (western blot),"human islets [2]; 10 μM pre-incubation 1 hour, TNF-α 50 ng/ml + IFNγ 1000 U/ml, FIG. 2C",did not inhibit PUMA expression
Etanercept,TNF-α induced up regulation of PUMA mRNA (% ACTB),human islets [1],prevented TNF-α induced up regulation
same,TNF-α induced up regulation of IL-8 mRNA (% ACTB),human islets [1],prevented TNF-α induced up regulation
same,TNF-α induced up regulation of endogenous TNF mRNA (% ACTB),human islets [1],prevented TNF-α induced up regulation
same,HbA1C levels,[3],lowering HbA1C levels
same,endogenous insulin production,[3],increased levels of endogenous insulin production
IL-1β: recombinant IL-1β; cytokine stimulus,PUMA mRNA (% ACTB) in human islets,human islets [4]; FIG. 16A,induced; also recorded: returned to the normal level by 16 hours
same,IL-8 mRNA (% ACTB) in human islets,human islets [4]; FIG. 16B,induced
same,endogenous IL-1B mRNA (% ACTB) in human islets,human islets [4]; FIG. 16C,induced
same,endogenous TNF mRNA (% ACTB) in human islets,human islets [4]; FIG. 16D,induced
B1,PUMA protein expression (western blot),"human islets [2]; TNF-α 50 ng/mL and/or IFN-γ 1000 U/mL, FIG. 2A",but not by IFN-γ (1000 U/mL) alone
same,PUMA mRNA expression in human islets,"human islets [5]; 4 hours, FIG. 8K",did not induce PUMA
same,IL-8 mRNA expression in human islets,"human islets [5]; FIG. 8C, 8F, 8L",did not induce IL-8 expression
same,glucose-induced preproinsulin precursor mRNA synthesis,human islets [6],did not impair
